According to patent US20210253598A1, “ARYL ANNULATED MACROCYCLIC INDOLE DERIVATIVES” (priority 2017, published 2021):
Counter-ions that a name gives are not always drawn. Like-named read-outs stand apart in the source and are kept apart here.

Key:
SUDHL5 [1] = assay: Induction of cytotoxicity in SUDHL5 cells, CellTiter-Glo (Assay 6); format: cell-based
Procedure, shortened: (§1)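 Overnight seeding at 37 °C, 5 h treatment, CellTiter-Glo added, 15 min shake at RT, luminescence read. Medium without cells as control.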

SUDHL10 [2] = assay: Induction of cytotoxicity in SUDHL10 cells, CellTiter-Glo (Assay 6); format: cell-based
Procedure, shortened: as §1

SUDHL10 [3] = assay: Induction of caspase-3/7 activity in SUDHL10 cells (Assay 4); format: cell-based
Procedure, shortened: (§2)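 DLBCL lines SUDHL5 and SUDHL10 were treated with compound for 3 h at 37 °C. Caspase-3/7 activity was then read by Caspase-Glo 3/7 luminescence after 1 h at 37 °C. Medium-only background was subtracted and values were normalized to the mean of DMSO-treated cells.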

BCL-2 = BCL-2 (Homo sapiens, UniProt P10415); assay: Protein-protein interaction assay BCL-2/Bad BH3 peptide, TR-FRET (BCL-2 assay, Assay 3); format: binding; settings: His-BCL-2 / Bad BH3 peptide, median
Experimental: The dose-dependent inhibition by the compounds described in this invention of the interaction between BCL-2 and the BH3 domain of Bad (both human) was determined using a steady state binding competition assay with time-resolved fluorescence energy transfer (TR-FRET) readout. For that purpose BCL-2 (amino acids 1-211, C-terminal fused to a hexahistidine (6×His) tag (SEQ ID 5) and a synthetic Bad BH3-derived peptide of sequence Biotin-PEG2-PEG2-[sequence]-Nle-[sequence]-amide (SEQ ID 4) served as protein receptor and tracer ligand respectively. The recombinant BCL-2 protein (expressed in E. coli) was purchased from BPS Bioscience (San Diego, Calif., USA). The Bad BH3-derived peptide can be obtained from e.g. Biosyntan (Berlin, Germany).
For that, 100-fold concentrated DMSO solutions were prepared by serial dilutions (1:3.4) of a 2 mM stock solution in a clear, 384-well microtiter plate (Greiner Bio-One, Frickenhausen, Germany). From there, 50 nl were transferred in a dark test plate (Greiner Bio-One, Frickenhausen, Germany). The assay was initiated by addition of 2 μl of a 2,5-fold concentrated His-BCL-2 solution (usually for a 1 nM end concentration in 5 μl reaction volume) in aqueous assay buffer [50 mM Tris/HCl pH 7, 100 mM sodium chloride (NaCl), 50 mM potassium fluoride (KF), 0.005% Tween-20, 2 mM DTT, 0.1% bovine gamma globulin (BGG)] to the compounds in the assay plate. This was followed by a 10-minute incubation step at 22° C. for pre-equilibration of the putative complex between His-BCL-2 and the compounds.
The mixture was incubated in the dark for one hour at 22° C. and then overnight at 4° C. The formation of BCL-2/Bad complexes was determined by measuring the resonance energy transfer of the anti-His-Eu-cryptate antibody to the streptavidin-XL665 present in the reaction. For that purpose, the fluorescence emission at 620 nm and 665 nm after excitation at 330-350 nm was measured in a TR-FRET measuring instrument, for instance a Rubystar or a Pherastar (both from BMG Lab Technologies, Offenburg, Germany) or a Viewlux (Perkin-Elmer). The ratio of the emission at 665 nm and at 622 nm was used as indicator of the amount of BCL-2/Bad complexes present.
The resulting data (ratio) were normalized, taking 0% inhibition as the mean value of control measurements (usually 32 data points) where all reagents were included. In this case 50 nl DMSO were used instead of compounds. […] IC50 values were determined by regression analysis based on a 4 parameter equation (minimum, maximum, IC50, Hill; Y=Max+(Min−Max)/(1+(X/IC50)^Hill) using the Screener Software (Genedata).

A2780 = assay: Anti-proliferative effect in A2780 cells, CellTiter-Glo (Assay 7); format: cell-based; settings: several values per example
Procedure, shortened: (§3)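 Proliferation is measured as luminescence from CellTiter-Glo after cells grow with compound for 72 h in a humidified 37 °C incubator. A reference plate read at time zero supplies the day 0 baseline, and DMSO wells serve as control for IC50 calculation.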

SUDHL5 [4] = assay: Anti-proliferative effect in SUDHL5 cells, CellTiter-Glo (Assay 7); format: cell-based; settings: Homo sapiens, SU-DHL-5, 72 h
Procedure, shortened: as §3

MV-4-11 = assay: Anti-proliferative effect in MV-4-11 cells, CellTiter-Glo (Assay 7); format: cell-based; settings: several values per example
Procedure, shortened: as §3

MCL-1 = MCL-1 (Homo sapiens, UniProt Q07820, K194A/K197A/R201A); assay: Protein-protein interaction assay MCL-1/Noxa BH3 peptide, TR-FRET (MCL-1 assay, Assay 1); format: binding; settings: MCL-1 Assay [M] (median), MBP-MCL-1 / Noxa BH3 peptide
Procedure, shortened: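 Human MBP-fused MCL-1 (aa 173-321; 1 nM final) was pre-incubated 10 min at 22 °C with compound in pH 7 Tris buffer containing NaCl, KF, Tween-20, DTT and BGG. Displacement of biotinylated Noxa BH3 peptide was read by TR-FRET (anti-MBP-Eu cryptate/streptavidin-XL665) after 1 h at 22 °C plus overnight at 4 °C. IC50 came from four-parameter fits against DMSO controls.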

SUDHL5 [5] = assay: Induction of caspase-3/7 activity in SUDHL5 cells (Assay 4); format: cell-based
Procedure, shortened: as §2

BCL-XL = BCL-XL (Homo sapiens, UniProt Q07817); assay: Protein-protein interaction assay BCL-XL/Bad BH3 peptide, TR-FRET (BCL-XL assay, Assay 2); format: binding; settings: His-BCL-XL / Bad BH3 peptide, median
AMO-1 = assay: Anti-proliferative effect in AMO-1 cells, CellTiter-Glo (Assay 7); format: cell-based; settings: read-out: Antiproli AMO-1; AMO-1, 72 hours incubation, CellTiter-Glo; several values per example
Procedure, shortened: as §3

[6] = Homo sapiens, SU-DHL-5, 5 h, SUDHL5, 5 hours incubation, median, read-out: Cytotox SUDHL5 [M] (median)
[7] = Homo sapiens, SU-DHL10, 5 h, SUDHL10, 5 hours incubation, median, read-out: Cytotox SUDHL10 [M] (median)
[8] = Homo sapiens, SU-DHL10, 3 h, SUDHL10, 3 hours treatment, Caspase-Glo 3/7, median, read-out: Caspase SUDHL10 [M] (median)
[9] = Homo sapiens, A2780, 72 h, A2780, 72 hours incubation, CellTiter-Glo, read-out: Antiproli A2780
[10] = SUDHL5, 72 hours incubation, CellTiter-Glo, median, read-out: Antiproli SUDHL5 [M] (median)
[11] = Homo sapiens, MV4-11, 72 h, MV-4-11, 72 hours incubation, CellTiter-Glo, read-out: Antiproli MV-4-11
[12] = Homo sapiens, SU-DHL-5, 3 h, SUDHL5, 3 hours treatment, Caspase-Glo 3/7, median, read-out: Caspase SUDHL5 [M] (median)
[13] = A2780, 72 hours incubation, CellTiter-Glo, read-out: Antiproli A2780

Chain of BCL-XL (Q07817 1-212): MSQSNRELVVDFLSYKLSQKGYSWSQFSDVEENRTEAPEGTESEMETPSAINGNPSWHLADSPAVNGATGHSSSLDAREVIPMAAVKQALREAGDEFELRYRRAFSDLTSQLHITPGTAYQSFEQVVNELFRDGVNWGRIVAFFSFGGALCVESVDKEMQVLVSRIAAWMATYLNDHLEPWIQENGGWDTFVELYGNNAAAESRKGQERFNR
Chain of MCL-1 (Q07820 173-321 K194A/K197A/R201A, looked up): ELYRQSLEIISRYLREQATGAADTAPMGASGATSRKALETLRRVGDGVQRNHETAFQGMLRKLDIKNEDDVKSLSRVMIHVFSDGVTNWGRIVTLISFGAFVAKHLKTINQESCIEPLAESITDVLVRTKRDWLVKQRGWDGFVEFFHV
Chain of BCL-2 (P10415 1-211): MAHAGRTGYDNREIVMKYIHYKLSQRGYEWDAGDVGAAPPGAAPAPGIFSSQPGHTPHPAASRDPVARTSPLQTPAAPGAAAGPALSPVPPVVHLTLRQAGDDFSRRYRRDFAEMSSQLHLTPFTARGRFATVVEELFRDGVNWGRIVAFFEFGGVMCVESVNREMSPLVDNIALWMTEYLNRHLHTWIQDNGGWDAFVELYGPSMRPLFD

Structure (SMILES) | EC50 (SUDHL10 [3]; [8]) | IC50 (BCL-2) | IC50 (A2780; [9]) | IC50 (SUDHL5 [4]; [10]) | IC50 (MV-4-11; [11]) | IC50 (MCL-1) | EC50 (SUDHL5 [5]; [12]) | IC50 (BCL-XL) | IC50 (SUDHL5 [1]; [6]) | IC50 (SUDHL10 [2]; [7]) | other results
Cc1c2c(nn1C)COCc1ccccc1Cn1c(C(=O)O)c(CCCOc3cccc4c3CCC4)c3ccc(F)c-2c31 (racemic) [Example 61, (rac)-1-(3-((2,3-Dihydro-1H-inden-4-yl)oxy)propyl)-15-fluoro-13,14-dimethyl-4,9,11,13-tetrahydrobenzo[3,4]pyrazolo[4′,3′:9,10][1,6]oxaazacycloundecino[8,7,6-hi]indole-2-carboxylic Acid] | 5.8e-06 M | > 20 µM | 2.28e-05 M | 2.1e-06 M | 3.57e-06 M | 2.1e-09 M | 2.5e-06 M | > 20 µM | 2.3e-06 M | 5e-06 M | –
Cc1c2c(nn1C)CNCc1ccccc1Cn1c(C(=O)O)c(CCCOc3cccc4ccccc34)c3cccc-2c31 (single isomer, unassigned; enantiomer 1) [Example 12, 4,5-Dimethyl-17-[3-(naphthalen-1-yloxy)propyl]-7,8,9,14-tetrahydro-5H-indolo[1,7-bc]pyrazolo-[4,3-e][2,8]benzodiazacycloundecine-16-carboxylic acid-Trifluoroacetic Acid Salt (Enantiomer 1)] | – | > 20 µM | – | – | – | 2.9e-09 M | – | > 20 µM | – | – | IC50 (SUDHL5 [1]; read-out: Cytotox SUDHL5 [M] (median), SUDHL5, 5 hours incubation): 1.9e-06 M; IC50 (SUDHL10 [2]; read-out: Cytotox SUDHL10 [M] (median), SUDHL10, 5 hours incubation): 5e-06 M; EC50 (SUDHL10 [3]; SUDHL10, 3 hours treatment, Caspase-Glo 3/7, median, read-out: Caspase SUDHL10 [M] (median)): 4.9e-06 M; EC50 (SUDHL5 [5]; SUDHL5, 3 hours treatment, Caspase-Glo 3/7, median, read-out: Caspase SUDHL5 [M] (median)): 2.4e-06 M
Cc1cc(OCCCc2c(C(=O)O)n3c4c(c(F)ccc24)-c2c(nn(C)c2C)COCc2ccccc2C3)cc(C)c1Cl [Example 60, (rac)-1-(3-(4-Chloro-3,5-dimethylphenoxy)propyl)-15-fluoro-13,14-dimethyl-4,9,11,13-tetrahydrobenzo[3,4]pyrazolo[4′,3′:9,10][1,6]oxaazacycloundecino[8,7,6-hi]indole-2-carboxylic Acid] | 1.2e-05 M | 19.8 µM | 2.3e-05 M | 5.1e-06 M | 5.75e-06 M | 2.9e-09 M | 3e-06 M | > 20 µM | 3.7e-06 M | 7.6e-06 M | –
Cc1c2c(nn1C)COCc1ccccc1Cn1c(C(=O)O)c(CCCOc3cccc4c3CCCC4)c3ccc(F)c-2c31 (racemic) [Example 62, (rac)-15-Fluoro-13,14-dimethyl-1-(3-((5,6,7,8-tetrahydronaphthalen-1-yl)oxy)propyl)-4,9,11,13-tetrahydrobenzo[3,4]pyrazolo[4′,3′:9,10][1,6]oxaazacycloundecino[8,7,6-hi]indole-2-carboxylic Acid] | 1e-05 M | > 20 µM | 1.39e-05 M | 3.1e-06 M | 6.36e-06 M | 2.6e-09 M | 3.2e-06 M | > 20 µM | 2.9e-06 M | 5.2e-06 M | –
Cc1c2c(nn1C)CN(S(=O)(=O)CCN1CCOCC1)Cc1ccccc1Cn1c(C(=O)O)c(CCCOc3cccc4ccccc34)c3cccc-2c31 (single isomer, unassigned; enantiomer 1) [Example 31, (+)-4,5-Dimethyl-8-[2-(morpholin-4-yl)ethanesulfonyl]-17-{3-[(naphthalen-1-yl)oxy]propyl}-7,8,9,14-tetrahydro-5H-indolo[1,7-bc]pyrazolo[4,3-e][2,8]benzodiazacycloundecine-16-carboxylic acid-N-ethylethanamine Salt (Enantiomer 1)] | – | – | – | – | – | 1.3e-08 M | – | – | – | – | IC50 (SUDHL5 [1]; SUDHL5, 5 hours incubation, median, read-out: Cytotox SUDHL5 [M] (median)): 5.3e-06 M; IC50 (SUDHL10 [2]; SUDHL10, 5 hours incubation, median, read-out: Cytotox SUDHL10 [M] (median)): > 7.8e-05 M; EC50 (SUDHL10 [3]; read-out: Caspase SUDHL10 [M] (median), SUDHL10, 3 hours treatment, Caspase-Glo 3/7): 9.7e-06 M; IC50 (A2780; Homo sapiens, A2780, 72 h, read-out: Antiproli A2780 [M], A2780, 72 hours incubation, CellTiter-Glo): 6.72e-06 M; IC50 (SUDHL5 [4]; read-out: Antiproli SUDHL5 [M] (median), SUDHL5, 72 hours incubation, CellTiter-Glo): 4.8e-06 M; IC50 (MV-4-11; Homo sapiens, MV4-11, 72 h, read-out: Antiproli MV-4-11 [M], MV-4-11, 72 hours incubation, CellTiter-Glo): 5.49e-06 M; IC50 (AMO-1): 5.93 µM; EC50 (SUDHL5 [5]; read-out: Caspase SUDHL5 [M] (median), SUDHL5, 3 hours treatment, Caspase-Glo 3/7): 5.2e-06 M
Cc1c2c(nn1C)COCc1nc3ccccc3nc1Cn1c(C(=O)O)c(CCCOc3cccc4ccccc34)c3cccc-2c31 (racemic) [Example 10, (rac)-4,5-Dimethyl-19-[3-(naphthalen-1-yloxy)propyl]-5,7,9,16-tetrahydroindolo[1′,7′:6,7,8]-pyrazolo[4′,3′:9,10][1,6]oxazacycloundecino[3,4-b]quinoxaline-18-carboxylic Acid] | 1.8e-05 M | > 20 µM | > 3.3e-05 M | 5.1e-06 M | – | – | 4.3e-06 M | > 20 µM | 5.6e-06 M | 1.4e-05 M | IC50 (A2780; [13]): 2.06e-05 M

More lines, main results first:

EC50 (SUDHL10 [3]; [8]) | IC50 (BCL-2) | IC50 (A2780; [9]) | IC50 (SUDHL5 [4]; [10]) | IC50 (MV-4-11; [11]) | IC50 (MCL-1) | EC50 (SUDHL5 [5]; [12]) | IC50 (BCL-XL) | Structure (SMILES) | IC50 (SUDHL5 [1]; [6]) | IC50 (SUDHL10 [2]; [7]) | other results
2.3e-05 M | 18.1 µM | 1.97e-05 M | 6.2e-06 M | > 3.3e-05 M | 4.5e-09 M | 9.3e-06 M | > 20 µM | Cc1c2c(nn1C)COCc1ccccc1Cn1c(C(=O)O)c(CCCOc3ccc(F)c4ccccc34)c3ccc(F)c-2c31 (racemic) [Example 63, (rac)-15-Fluoro-1-(3-((4-fluoronaphthalen-1-yl)oxy)propyl)-13,14-dim4,9,11,13-tetrahydrobenzo[3,4]pyrazolo[4′,3′:9,10][1,6]oxaazacycloundecino[8,7,6-hi]indole-2-carboxylic Acid] | 8.3e-06 M | 1.5e-05 M | –
1.3e-05 M | 15.8 µM | 1.66e-05 M | 3.7e-06 M | 9.05e-06 M | 3.1e-09 M | 3.3e-06 M | > 20 µM | CCc1c2c(nn1C)COCc1ccccc1Cn1c(C(=O)O)c(CCCOc3ccc(F)c4ccccc34)c3ccc(F)c-2c31 (racemic) [Example 76, (rac)-14-Ethyl-15-fluoro-1-(3-((4-fluoronaphthalen-1-yl)oxy)propyl)-13-methyl-4,9,11,13-tetrahydrobenzo[3,4]pyrazolo[4′,3′:9,10][1]oxa[6]azacycloundecino[8,7,6-hi]indole-2-carboxylic Acid] | 3.4e-06 M | 9.4e-06 M | IC50 (A2780; [13]): 2.5e-05 M; IC50 (MV-4-11; MV-4-11, 72 hours incubation, CellTiter-Glo, read-out: Antiproli MV-4-11): 1.01e-05 M
1.3e-05 M | 15.6 µM | 1.7e-05 M | 9.2e-06 M | 2.33e-06 M | 2.6e-09 M | 2.9e-06 M | 19.6 µM | CCc1c2c(nn1C)COCc1ccccc1Cn1c(C(=O)O)c(CCCOc3cc(C)c(Cl)c(C)c3)c3ccc(F)c-2c31 (racemic) [Example 79, (rac)-1-(3-(4-Chloro-3,5-dimethylphenoxy)propyl)-14-15-fluoro-13-methyl-4,9,11,13-tetrahydrobenzo[3,4]pyrazolo[4′,3′:9,10][1]oxa[6]azacycloundecino[8,7,6-hi]indole-2-carboxylic Acid] | 2.1e-06 M | 1e-05 M | –
1.7e-05 M | 13.7 µM | 1.51e-05 M | 6e-06 M | 9.93e-06 M | 7.4e-09 M | 6.2e-06 M | > 20 µM | CCc1nn(C)c2c1-c1c(F)ccc3c(CCCOc4cccc5c4CCCC5)c(C(=O)O)n(c13)Cc1ccccc1COC2 (racemic) [Example 88, (rac)-14-Ethyl-15-fluoro-12-methyl-1-(3-((5,6,7,8-tetrahydronaphthalen-1-yl)oxy)propyl)-4,9,11,12-tetrahydrobenzo[3,4]pyrazolo[4′,3′:9,10][1,6]oxaazacycloundecino[8,7,6-hi]indole-2-carboxylic Acid] | 7.4e-06 M | 1.5e-05 M | –
